Measured values as given in ChEMBL document CHEMBL1201862, “PubChem BioAssay data set” (2004).
Active and inactive are the calls of the source.

How the values were obtained:
[1] = biological target: Ion channel NompC (Danio rerio, UniProt Q7T1G6); experiment: Fluorescence counterscreen assay for TRPML3 agonists: dose response cell-based high-throughput screening assay to identify agonists of the transient receptor potential channel N1 (TRPN1). [Related pubchem assays: 1526, 1424, 1448 ]; type: functional
[2] = viability of PTEN-deleted HCT116 cells – cell-based, HCT116 PTEN knockout, dose response (AID 1047); type: functional;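 note: HCT116 colon tumor cells with PTEN knocked out; cells exposed to compound for 60 hours before readout; potency for loss of cell viability measured by luminescence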
[3] = viability of HCT116 lacking mutant beta-catenin – cell-based, human colon tumor, dose response (AID 1045); type: functional;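 note: HCT116 colon tumor cells with beta catenin knocked out; cells exposed to compound for 60 hours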
[4] = biological target: Mucolipin-3 (Homo sapiens, UniProt Q8TDD5); experiment: Dose response cell-based high-throughput screening assay for agonists of the transient receptor potential channel ML3 (TRPML3). [Related pubchem assays: 1526, 1424, 1448 ]; type: functional
[5] = biological target: Serine/threonine-protein phosphatase PP1-alpha catalytic subunit (Homo sapiens, UniProt P62136); experiment: inhibition of protein phosphatase 1 activity – biochemical, fluorescence, dose response (AID 2403);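 note: phosphatase turnover of OMFP into fluorescent 3-O-methylfluorescein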
[6] = biological target: Serine/threonine-protein phosphatase (Homo sapiens, UniProt Q9BPW0); experiment: Counterscreen for inhibitors of PP1: fluorescence-based biochemical high throughput dose response assay to identify inhibitors of Protein Phosphatase 5 (PP5). [Related pubchem assays: 2034 (Summary (PP5 inhibitors)), 1987 (PP5 inhibitors in singlate), 2235 (PP1 inhibitors in singlate)]
[7] = tested on: HEK293; experiment: NOD2 signaling inhibitors in MDP-stimulated cells, cell-based, uHTS, luminescence (AID 2001); type: functional; settings: Homo sapiens
[8] = tested on: HEK293; experiment: cells; type: functional, cell-based; settings: Homo sapiens
[9] = tested on: HEK293; experiment: inhibition of NOD1-driven NF-kB reporter – cell-based, luminescence, uHTS, primary screen (AID 1578); type: functional; settings: Homo sapiens
[10] = biological target: T1, Bcl-2-like protein 10 (Homo sapiens, UniProt Q9HD36); experiment: Concentration-response of Bcl-B inhibitors by biochemical FP with TR3 (AID 1243); type: functional
T1 sequence (Q9HD36 whole entry): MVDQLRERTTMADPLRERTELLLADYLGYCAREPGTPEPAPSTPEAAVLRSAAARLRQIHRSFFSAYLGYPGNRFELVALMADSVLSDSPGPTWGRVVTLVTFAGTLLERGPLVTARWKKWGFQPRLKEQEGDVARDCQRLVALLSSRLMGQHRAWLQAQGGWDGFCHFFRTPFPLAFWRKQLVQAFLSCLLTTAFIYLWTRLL

[11] = tested on: HEK293; experiment: cells; type: functional, cell-based; settings: Homo sapiens; remark: listed apart in the source
[12] = tested on: HEK293; experiment: Fluorescence-based counterscreen for potentiators or agonists of NPY-Y2: cell-based high-throughput dose response assay to identify inhibitors of cyclic nucleotide gated ion channel (CNGC) activity. In this assay, the parental HEK293 cell line transfected with a cyclic-nucleotide gated ion channel (CNGC)-based cAMP sensor is used to measure inhibition of isoproterenol-induced CNGC activity by test compound.; type: functional; settings: Homo sapiens
[13] = biological target: Cytochrome P450 2D6 (Homo sapiens, UniProt P10635);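 note: CYP2D6 member of a cytochrome P450 panel assay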
[14] = biological target: T2, Neuropeptide Y receptor type 2 (Homo sapiens, UniProt P49146); experiment: Fluorescence-based cell-based high-throughput dose response assay for agonists of NPY-Y2. [Related pubchem assays: 1703 (Screening assay (CNGC inhibitors).), 1359 (Screening assay (NPY-Y2 potentiators or agonists).), 1304 (Screening assay (NPY-Y1 potentiators or agonists).), 1710 (Screening assay (NPY-Y2 agonists).), 1791 (Summary AID.)]; type: functional
T2 sequence (P49146 whole entry): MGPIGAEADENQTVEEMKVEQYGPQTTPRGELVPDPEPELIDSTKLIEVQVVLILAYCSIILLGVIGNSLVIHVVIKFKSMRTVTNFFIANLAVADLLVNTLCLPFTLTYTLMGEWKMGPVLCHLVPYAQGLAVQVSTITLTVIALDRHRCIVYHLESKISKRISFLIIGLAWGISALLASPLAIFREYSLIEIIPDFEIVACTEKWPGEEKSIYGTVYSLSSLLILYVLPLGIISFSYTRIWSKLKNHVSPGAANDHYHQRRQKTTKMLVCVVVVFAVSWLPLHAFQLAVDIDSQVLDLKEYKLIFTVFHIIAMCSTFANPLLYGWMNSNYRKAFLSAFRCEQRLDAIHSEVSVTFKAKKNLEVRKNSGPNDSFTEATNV

[15] = biological target: T3, Neuropeptide Y receptor type 1 (Homo sapiens, UniProt P25929); experiment: Fluorescence-based counterscreen for agonists of NPY-Y2: cell-based high-throughput dose response assay for agonists of NPY-Y1.; type: functional
T3 sequence (P25929 whole entry): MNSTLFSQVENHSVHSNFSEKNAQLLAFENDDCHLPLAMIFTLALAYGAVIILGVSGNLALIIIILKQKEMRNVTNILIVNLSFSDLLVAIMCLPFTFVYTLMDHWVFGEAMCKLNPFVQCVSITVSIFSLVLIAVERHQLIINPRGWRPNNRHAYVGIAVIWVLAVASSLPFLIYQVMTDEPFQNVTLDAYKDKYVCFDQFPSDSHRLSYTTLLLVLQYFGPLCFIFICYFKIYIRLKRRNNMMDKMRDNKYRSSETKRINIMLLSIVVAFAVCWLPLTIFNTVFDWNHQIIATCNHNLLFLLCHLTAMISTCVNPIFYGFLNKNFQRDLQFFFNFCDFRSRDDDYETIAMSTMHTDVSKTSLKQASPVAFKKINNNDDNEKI

[16] = cAMP pathway inhibition in counterscreen cell line – TR-FRET cAMP detection, counter-screen for MC4R biased antagonist project, dose response (AID 602305); type: functional, cell-based;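 note: U2OS cells stimulated with forskolin near its EC80 as the cAMP inducer; potency is for inhibition of forskolin-stimulated cAMP signaling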
[17] = biological target: T3, Neuropeptide Y receptor type 1; type: functional
[18] = biological target: Melanocortin receptor 4 (Homo sapiens, UniProt P32245); experiment: inhibitors of MC4R cAMP signaling – cell-based, TR-FRET, biased antagonists, dose response (AID 602298); type: functional;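 note: antagonist potency against agonist-stimulated cAMP production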
[19] = biological target: T2, Neuropeptide Y receptor type 2; type: functional, cell-based

Chain of Serine/threonine-protein phosphatase (Q9BPW0 whole entry): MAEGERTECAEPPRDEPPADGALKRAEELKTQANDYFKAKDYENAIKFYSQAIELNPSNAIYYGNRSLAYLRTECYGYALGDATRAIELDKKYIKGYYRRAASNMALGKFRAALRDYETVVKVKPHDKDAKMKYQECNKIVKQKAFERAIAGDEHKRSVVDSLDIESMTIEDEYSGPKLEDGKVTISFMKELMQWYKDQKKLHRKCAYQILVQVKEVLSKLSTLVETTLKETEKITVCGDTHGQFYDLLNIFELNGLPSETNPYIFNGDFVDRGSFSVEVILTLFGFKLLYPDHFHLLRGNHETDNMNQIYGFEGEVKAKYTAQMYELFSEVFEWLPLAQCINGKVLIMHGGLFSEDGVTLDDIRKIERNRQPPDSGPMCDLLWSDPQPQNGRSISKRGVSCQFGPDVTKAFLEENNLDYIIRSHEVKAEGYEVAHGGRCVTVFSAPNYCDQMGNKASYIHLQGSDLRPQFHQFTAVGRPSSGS
Chain of Ion channel NompC (Q7T1G6 whole entry): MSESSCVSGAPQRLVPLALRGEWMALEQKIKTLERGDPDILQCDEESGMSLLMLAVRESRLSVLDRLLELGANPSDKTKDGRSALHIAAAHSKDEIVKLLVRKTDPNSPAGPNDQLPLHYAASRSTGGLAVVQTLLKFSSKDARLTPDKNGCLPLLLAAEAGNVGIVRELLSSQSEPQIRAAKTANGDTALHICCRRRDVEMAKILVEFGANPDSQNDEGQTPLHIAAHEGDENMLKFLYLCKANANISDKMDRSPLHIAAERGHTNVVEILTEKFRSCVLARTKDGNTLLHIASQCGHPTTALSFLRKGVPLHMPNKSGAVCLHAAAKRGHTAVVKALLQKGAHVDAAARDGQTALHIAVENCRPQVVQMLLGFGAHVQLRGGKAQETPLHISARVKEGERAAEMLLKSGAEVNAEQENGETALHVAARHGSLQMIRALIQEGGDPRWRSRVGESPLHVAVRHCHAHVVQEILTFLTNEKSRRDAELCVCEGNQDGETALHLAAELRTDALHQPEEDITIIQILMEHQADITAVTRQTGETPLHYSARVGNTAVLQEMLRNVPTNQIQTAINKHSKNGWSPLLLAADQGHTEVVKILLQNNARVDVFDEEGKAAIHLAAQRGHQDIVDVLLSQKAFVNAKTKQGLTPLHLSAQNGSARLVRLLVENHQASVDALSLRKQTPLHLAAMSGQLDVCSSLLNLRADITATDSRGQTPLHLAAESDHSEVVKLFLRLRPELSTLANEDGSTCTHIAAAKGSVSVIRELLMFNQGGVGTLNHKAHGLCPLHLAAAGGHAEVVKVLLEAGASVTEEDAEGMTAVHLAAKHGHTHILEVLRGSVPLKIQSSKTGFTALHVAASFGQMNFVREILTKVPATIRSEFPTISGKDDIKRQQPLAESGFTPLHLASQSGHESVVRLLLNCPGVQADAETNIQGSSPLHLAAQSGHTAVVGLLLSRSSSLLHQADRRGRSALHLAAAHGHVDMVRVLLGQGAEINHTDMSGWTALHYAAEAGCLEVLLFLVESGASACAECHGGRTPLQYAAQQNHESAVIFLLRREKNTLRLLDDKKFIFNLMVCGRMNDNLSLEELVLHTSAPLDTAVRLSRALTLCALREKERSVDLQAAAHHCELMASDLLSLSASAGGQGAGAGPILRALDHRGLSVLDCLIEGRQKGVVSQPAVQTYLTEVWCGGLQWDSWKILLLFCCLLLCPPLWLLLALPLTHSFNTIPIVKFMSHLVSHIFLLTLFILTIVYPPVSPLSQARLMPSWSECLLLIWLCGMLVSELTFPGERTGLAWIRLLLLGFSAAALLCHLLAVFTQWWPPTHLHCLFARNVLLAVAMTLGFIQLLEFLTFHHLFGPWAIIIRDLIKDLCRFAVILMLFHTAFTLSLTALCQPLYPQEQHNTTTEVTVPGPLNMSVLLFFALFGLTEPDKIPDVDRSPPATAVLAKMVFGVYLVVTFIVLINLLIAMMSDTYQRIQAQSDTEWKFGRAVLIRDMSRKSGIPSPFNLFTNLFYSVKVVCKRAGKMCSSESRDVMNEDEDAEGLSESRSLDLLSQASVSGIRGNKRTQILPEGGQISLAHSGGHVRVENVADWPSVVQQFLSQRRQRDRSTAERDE
Chain of Mucolipin-3 (Q8TDD5 whole entry): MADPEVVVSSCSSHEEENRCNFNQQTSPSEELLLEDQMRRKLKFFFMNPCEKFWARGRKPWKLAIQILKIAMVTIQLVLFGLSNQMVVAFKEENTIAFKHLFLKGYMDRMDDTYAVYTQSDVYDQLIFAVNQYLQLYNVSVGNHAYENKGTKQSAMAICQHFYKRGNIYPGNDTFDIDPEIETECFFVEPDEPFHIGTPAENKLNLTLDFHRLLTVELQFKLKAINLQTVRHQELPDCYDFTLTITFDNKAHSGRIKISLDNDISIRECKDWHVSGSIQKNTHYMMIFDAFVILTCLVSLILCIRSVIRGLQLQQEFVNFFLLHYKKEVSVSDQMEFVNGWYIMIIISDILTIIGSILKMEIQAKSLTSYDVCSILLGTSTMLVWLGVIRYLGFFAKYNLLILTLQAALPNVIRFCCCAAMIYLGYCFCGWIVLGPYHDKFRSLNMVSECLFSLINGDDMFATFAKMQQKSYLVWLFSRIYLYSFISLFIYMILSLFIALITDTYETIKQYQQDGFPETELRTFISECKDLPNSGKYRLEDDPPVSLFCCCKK
Chain of Cytochrome P450 2D6 (P10635 whole entry): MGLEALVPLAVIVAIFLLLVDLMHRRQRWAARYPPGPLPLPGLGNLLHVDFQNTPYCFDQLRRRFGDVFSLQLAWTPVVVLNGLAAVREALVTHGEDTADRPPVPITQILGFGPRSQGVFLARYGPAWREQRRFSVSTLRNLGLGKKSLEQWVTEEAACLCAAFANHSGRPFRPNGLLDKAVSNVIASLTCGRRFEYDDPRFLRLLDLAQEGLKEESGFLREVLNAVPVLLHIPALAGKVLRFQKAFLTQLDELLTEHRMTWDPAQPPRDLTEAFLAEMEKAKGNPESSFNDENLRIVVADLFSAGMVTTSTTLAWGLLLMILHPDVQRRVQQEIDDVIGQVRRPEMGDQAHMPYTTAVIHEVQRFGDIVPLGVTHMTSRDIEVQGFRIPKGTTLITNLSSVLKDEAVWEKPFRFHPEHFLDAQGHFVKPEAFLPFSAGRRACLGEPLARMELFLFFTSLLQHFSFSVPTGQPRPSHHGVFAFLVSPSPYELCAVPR
Chain of Serine/threonine-protein phosphatase PP1-alpha catalytic subunit (P62136 whole entry): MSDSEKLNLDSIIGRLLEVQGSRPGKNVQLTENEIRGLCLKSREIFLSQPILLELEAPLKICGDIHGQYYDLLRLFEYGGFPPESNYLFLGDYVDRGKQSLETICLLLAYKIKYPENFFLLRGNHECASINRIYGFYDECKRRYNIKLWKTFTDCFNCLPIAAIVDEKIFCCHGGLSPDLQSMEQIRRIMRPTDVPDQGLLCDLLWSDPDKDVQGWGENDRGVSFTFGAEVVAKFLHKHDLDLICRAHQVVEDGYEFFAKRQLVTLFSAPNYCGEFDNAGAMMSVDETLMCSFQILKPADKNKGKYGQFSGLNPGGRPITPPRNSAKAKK
Chain of Melanocortin receptor 4 (P32245 whole entry): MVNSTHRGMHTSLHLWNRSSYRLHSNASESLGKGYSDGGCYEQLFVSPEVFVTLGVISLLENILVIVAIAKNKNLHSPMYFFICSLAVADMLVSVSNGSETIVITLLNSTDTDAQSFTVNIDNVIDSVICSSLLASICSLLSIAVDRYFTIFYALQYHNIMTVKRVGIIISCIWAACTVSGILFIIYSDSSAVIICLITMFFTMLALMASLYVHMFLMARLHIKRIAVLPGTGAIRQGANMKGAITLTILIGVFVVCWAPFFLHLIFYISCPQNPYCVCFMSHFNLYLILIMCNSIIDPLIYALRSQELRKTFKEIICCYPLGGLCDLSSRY

Q: What does the source list for CC(c1ccccc1)N(NC(=O)C(O)(c1ccccc1)c1ccccc1)C(=O)c1ccccc1 (centres undefined)?
A: EC50 [1]: > 29.9 µM (not active); EC50 [2]: 13.9 µM (active); EC50 [3]: 11.3 µM (active); EC50 [4]: > 29.9 µM (not active)

Q: Which IC50 [5] does the source give for COc1ccc(NC(=O)C2C3CCC(O3)C2C(=O)O)c(OC)c1 (centres undefined) here?
A: 4.95 µM (active)

Q: What about the IC50 [6] of the same compound?
A: 4.79 µM (active)

Q: For Nc1[nH]nc2ncc3cc4ccccc4nc3c12, which IC50 [7] is on record?
A: 8.23 µM (active)

Q: And the IC50 [8]?
A: 7.35 µM (active)

Q: What about the EC50 [9] of the same compound?
A: 11.9 µM (active)

Q: And the EC50 [10]?
A: 3.74 µM (active)

Q: What about the IC50 [11] of the same compound?
A: > 20 µM (inactive)

Q: With Cc1cccc(C)c1OCC(O)CNC(C)(C)C (centres undefined) as the compound, how does the EC50 [12] read?
A: 17.9 µM (not active)

Q: And the AC50 [13]?
A: 8.91 µM (inconclusive)

Q: And the EC50 [14]?
A: > 35.4 µM (not active)

Q: And the EC50 [15]?
A: > 35.4 µM (not active)

Q: What does the source list for COC(=O)C1=C(C(=O)OC)SC2(S1)C(C(=O)OC)=C(C(=O)OC)SC1=C2c2cccc(C)c2NC1(C)C?
A: IC50 [16]: > 64.6 µM (inactive); IC50 [17]: > 35 µM (not active); IC50 [18]: 3.83 µM (active); IC50 [19]: > 35 µM (not active)
